According to US9394300B2, “Quinolone derivatives” (Cadila Healthcare Limited, priority 2012, dated 2016):

Columns and labels:
C57 Mice [1] = assay: Estimating circulating EPO release in mice (plasma EPO by mouse EPO ELISA); type: in vivo; conditions: plasma six hours after administration, EPO in control = 62 ng/mL
Experimental: (1) Protocol for Estimating Circulating EPO Release in Mice
C57 Mice were administered various doses (10 mg/kg, 30 mg/kg, 50 mg/kg, 100 mg/kg) of compounds of the present invention by oral gavage at 10 ml/kg. Six hours after compound administration, mice were bled by retro-orbital puncture, under light ether anesthesia in microfuge tubes containing 2% EDTA (10 μl/100 μl of blood). Plasma was separated and analyzed for EPO content by mouse EPO ELISA.

C57 Mice [2] = assay: Estimating hemoglobin levels in mice; type: in vivo; conditions: oral once daily for 7 consecutive days at 20 mg/kg, whole blood on 8th day
Experimental: (2) Protocol for Estimating Hemoglobin Levels in Mice
C57 mice were administered compounds of the present invention at 10 ml/kg by oral route daily once in the morning for 7 consecutive days at 20 mg/kg. On 8th day animals were bled by retro-orbital puncture under light ether anesthesia in microfuge tubes containing 2% EDTA (10 μl/100 μl of blood) for whole blood. Hemoglobin, Reticulocyte count and RBC count were measured using standard procedures.

Compound	EPO (ng/mL) oral gavage 10 mg/kg (C57 Mice [1]) [ng/mL]	EPO (ng/mL) oral gavage 30 mg/kg (C57 Mice [1]) [ng/mL]	Hemoglobin (g/dL) 20 mg/kg compound (C57 Mice [2]) [g/dL]	EPO (ng/mL) oral gavage 50 mg/kg (C57 Mice [1]; oral gavage 50 mg/kg) [ng/mL]
O=C(O)CNC(=O)c1c(O)c2ccccc2n(OCC2CC2)c1=O [Example 2, 2-(1-(cyclopropylmethoxy)-4-hydroxy-2-oxo-1,2-dihydroquinoline-3-carboxamido)acetic acid]	396	4822	16.3	
C=CCOn1c(=O)c(C(=O)NCC(=O)O)c(O)c2ccccc21 [Example 15, 2-(1-(allyloxy)-4-hydroxy-2-oxo-1,2-dihydroquinoline-3-carboxamido)acetic acid]	315		13.2	4269
CCCOn1c(=O)c(C(=O)NCC(=O)O)c(O)c2ccccc21 [Example 21, 2-(4-hydroxy-2-oxo-1-propoxy-1,2-dihydroquinoline-3-carboxamido) acetic acid]	190	6234	15.8	
